In US8586719B2, “Triterpenes for modulating gene expression and cell membrane, and as antiprotozoal agents” (Pacific Arrow Limited, priority 2005, dated 2013):
≈ marks a conversion by molar mass, not a printed value.

How the values were obtained:
[1] = system: NFKB1Z (nuclear factor of kappa light polypeptide gene enhancer in B-cells inhibitor, zeta); test: Gene expression by Real-time PCR: NFKB1Z; format: cell-based; settings: DMSO control = 100
Description: (§1) Determination of gene expression by Real-time PCR method (Brilliant QPCR, Agilent Technologies): The real-time polymerase chain reactions further confirm the results obtained from micro array analysis. The Real-time PCR results (shown below) confirmed that Compound Y3 and YM increase the expression of the genes: ANGPT2, DDIT3, LIF and NFKB1Z

[2] = system: insulin-like growth factor binding protein 4 (IGFBP4); test: Microarray gene expression in ES2 cells: IGFBP4; format: cell-based, human; settings: probe set 201508_at
Description: (§2) The composition comprises bioactive compounds from natural plants or synthesis. The majority of the plants are from the Sapindaceae family, which has 140-150 genera with 1400-2000 species. The program is based on our purification methods and biological assays including the MTT assay See International Application No. PCT/US05/31900, filed Sep. 7, 2005, U.S. Ser. No. 11/289,142, filed Nov. 28, 2005, and U.S. Ser. No. 11/131,551, filed May 17, 2005, and PCT/US2008/002086, 1188-ALA-PCT, filed Feb. 15, 2008, the contents of which are incorporated herein by reference. The details of Analysis of gene expression of ES2 cells after Y-treatment by Microarray, Data Analysis Methods and Western blot in PCT/US2008/002086, 1188-ALA-PCT, filed Feb. 15, 2008, the contents of which are incorporated herein by reference

[3] = system: COL1A1 (collagen type 1 alpha 1); test: Gene expression by Real-time PCR: COL1A1; format: cell-based; settings: control = 100
[4] = system: thrombospondin 1 (THBS1); test: Microarray gene expression in ES2 cells: thrombospondin; format: cell-based, human
Description: as §2

[5] = system: RAB3B, member RAS oncogene family; test: Microarray gene expression in ES2 cells: RAB3B; format: cell-based, human
Description: as §2

[6] = system: dual specificity phosphatase 10 (DUSP10); test: Microarray gene expression in ES2 cells: DUSP10; format: cell-based, human
Description: as §2

[7] = system: Fibronectin; test: Fibronectin secretion, lung carcinoma cells (H460); format: cell-based, human; settings: Homo sapiens, NCI-H460; H460 cells; 20 ug/ml
Protocol: Reduction of Fibronectin secretion from ES2 cells after xanifolia-Y treatment. • (Results of F1, F3, F4, F5, F7, F8, F11, F12A, F15, F16, F17) Data in PCT/US2008/002086, 1188-ALA-PCT, filed Feb. 15, 2008 are incorporated herein by reference • (F11) For lung carcinoma cells (H460), at concentration of 20 ug/ml, there are inhibitions of Fibronectin secretion ranged from 20-60%. • (F12A) For bladder carcinoma cells (HTB-9), Xanifolia-Y (10 ug/ml) inhibits 50% of Fibronectin secretion. • (F15) In liver HepG2 cells. 10 ug/ml of xanifolia-Y inhibits 42% secretion of Fibronectin. • (F16) Incubation of brain glioblastoma T98G cells with 10 ug/ml of xanifolia-Y inhibits 27% Fibronectin secretion and with 20 ug/ml Y inhibits 74% Fibronectin secretion. • (F17) For skin SK-MeI-5 cells, the inhibition is 40-57% with 20 ug/ml of Xanifolia-Y.

[8] = system: leptin; test: Expression of leptin; format: cell-based
[9] = system: LAMA4 (laminin alpha 4); test: Gene expression by Real-time PCR: LAMA4; format: cell-based; settings: control = 100
Description: as §1

[10] = system: regulator of G-protein signalling 4 (RGS4); test: Microarray gene expression in ES2 cells: regulator of G-protein; format: cell-based, human
Description: as §2

[11] = system: (bladder) TB9 cells; test: Anti-cancer activity (MTT assay), bladder TB9 cells; format: cell-based; settings: Homo sapiens
Description: (Our purification methods and biological assays including the MTT assay in International Application No. PCT/US05/31900, filed Sep. 7, 2005, U.S. Ser. No. 11/289,142, filed Nov. 28, 2005, and U.S. Ser. No. 11/131,551, filed May 17, 2005, and PCT/US2008/002086, 1188-ALA-PCT, filed Feb. 15, 2008, the contents of which are incorporated herein by reference)
Experiment details of herb extraction, analysis of extract components by HPLC, determination of the cell-growth activity effected by Xanifolia Y with cells derived from different human organs using MTT Assay, purification of the bioactive components from plant extract, fractionation of plant extracts with FPLC, isolation of component Ys with preparative HPLC, determination of the chemical structure, cell experiments and animal studying are disclosed in PCT/US05/31900, U.S. Ser. No. 11/289,142, U.S. Serial 10/906,303, U.S. Ser. No. 11/131,551 and U.S. Ser. Nos. 11/683,198, filed on Mar. 7, 2007, PCT/US2007/077273, filed Aug. 30, 2007, U.S. Ser. No. 60/890,380, filed on Feb. 16, 2007, U.S. Nos. 60/947,705, filed on Jul. 3, 2007, PCT/US2008/002086, 1188-ALA-PCT, filed Feb. 15, 2008, the contents of which are incorporated herein by reference. Experiments 1-23 of PCT/US2008/002086, 1188-ALA-PCT, filed Feb. 15, 2008 are incorporated herein by reference.

[12] = system: Angiopoietin 2 (Ang2); test: Up regulation of Angiopoietin 2 (Ang2) in ES2 cells; format: cell-based, human; settings: study in PCT/US2008/002086
Description: The results of study in PCT/US2008/002086, 1188-ALA-PCT, filed Feb. 15, 2008 are incorporated herein by reference.

`C/C=C(/C)C(=O)O[C@H]1[C@H](OC(=O)/C(C)=C\C)[C@@]2(CO)C(CC1(C)C)C1=CCC3[C@@]4(C)CC[C@H](O[C@@H]5OC(C(=O)O)[C@@H](O)[C@@H](O[C@@H]6O[C@@H](CO)[C@@H](O)C6O)C5O[C@@H]5OC(CO)[C@H](O)[C@@H](O)C5O)C(C)(C)C4CC[C@@]3(C)[C@]1(C)[C@@H](O)[C@H]2O` (stereo partly drawn) [Y, 3-O-[β-D-galactopyranosyl(1→2)]-α-L-arabinofuranosy (1→3)-β-D-glucuronopyranosyl-21,22-O-diangeloyl-3β, 15α, 16α, 21β, 22α, 28-hexahydroxyolean-12-ene] was tested, and the “NFKB1Z expression, % of control” value [1] was 142.9 % of control, the “IGFBP4 expression, treated/D (DMSO control)” value [2] was −1.7 and the “COL1A1 expression, % of control” value [3] was 49.9 % of control. The “THBS1 expression, treated/D (DMSO control)” value (from here on “THBS1 expression, treated/D”) ([4]; probe set 201108_s_at) was −1.7, the “THBS1 expression, treated/D” value ([4]; probe set 201109_s_at) was −2.0 and the “THBS1 expression, treated/D” value ([4]; probe set 201110_s_at) was −1.8. For the same compound, the “RAB3B expression, treated/D (DMSO control)” value (from here on “RAB3B expression, treated/D”) ([5]; ID 205924_at) was −1.7, the “RAB3B expression, treated/D” value ([5]; ID 205925_s_at) was −1.2 and the “RAB3B expression, treated/D” value ([5]; ID 227123_at) was −1.6. For the same compound, the “RAB3B expression, treated/D” value ([5]; ID 242629_at) was −3.5, the “DUSP10 expression (given as Y/D, YM/D)” value ([6]; 215501_s_at) was 3.2 and the “DUSP10 expression (given as Y/D, YM/D)” value ([6]; 221563_at) was 3.8. The inhibition at 20 µg/mL [7] was 20 to 60%, the expression of leptin [8] was “inhibit” and the “LAMA4 expression, % of control” value [9] was 53.6 % of control. The “RGS4 expression, treated/D (DMSO control)” value (from here on “RGS4 expression, treated/D”) ([10]; probe set 204337_at) was −3.4, the “RGS4 expression, treated/D” value ([10]; probe set 204338_s_at) was −2.5 and the “RGS4 expression, treated/D” value ([10]; probe set 204339_s_at) was −3.5. For the same compound, the IC50 [11] was 5 µg/mL (≈ 4.38 µM) and the “Angiopoietin 2 (Ang2) in ES2 cells” value [12] was “Up regulation”.
